Laboratory results reported in PubChem BioAssay AID328 (DTP/NCI, 2004).
Where “and” joins values, the source holds several entries; their conditions need not be identical. Identical values can stand only once. Inconclusive results and toxic doses are left out.

Tested on: BDF1 mice, P388 leukemia ip, median survival T/C
Assay: NCI In Vivo Anticancer Drug Screen. Data for tumor model P388 Leukemia (intraperitoneal) in B6D2F1 (BDF1) mice
Conditions: endpoint: median survival time, higher = longer survival
Method in brief: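 Steps: implant the tumour, treat one group with compound and another with vehicle, record survival, then divide treated by control.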

[1] = dose: 1.56 mg/kg/injection, schedule: Q01DX009 (ip), vehicle: saline
[2] = dose: 50.0 mg/kg/injection, schedule: Q01DX009 (ip), vehicle: saline with Tween-80
[3] = dose: 100.0 mg/kg/injection, schedule: Q04DX003 (ip), vehicle: Klucel (hydroxypropylcellulose) (HPC)

Nc1nc2nsnc2nc1N
T/C (dose: 1.56 mg/kg/injection, schedule: Q01DX009 (ip), vehicle: water): 111 % of control
T/C (dose: 3.12 mg/kg/injection, schedule: Q01DX009 (ip), vehicle: water): 111 % of control
T/C (dose: 3.12 mg/kg/injection, schedule: Q04DX003 (ip), vehicle: water): 100 % of control
T/C (dose: 6.25 mg/kg/injection, schedule: Q01DX009 (ip), vehicle: water): 100 % of control
T/C (dose: 6.25 mg/kg/injection, schedule: Q04DX003 (ip), vehicle: water): 110 % of control
T/C (dose: 12.5 mg/kg/injection, schedule: Q01DX009 (ip), vehicle: water): 100 % of control
T/C (dose: 12.5 mg/kg/injection, schedule: Q04DX003 (ip), vehicle: water): 100 % of control
T/C (dose: 25.0 mg/kg/injection, schedule: Q01DX009 (ip), vehicle: water): 102 % of control
T/C (dose: 25.0 mg/kg/injection, schedule: Q04DX003 (ip), vehicle: water): 110 % of control
T/C (dose: 50.0 mg/kg/injection, schedule: Q01DX009 (ip), vehicle: water): 111 % of control
T/C (dose: 50.0 mg/kg/injection, schedule: Q04DX003 (ip), vehicle: water): 115 % of control
T/C (dose: 100.0 mg/kg/injection, schedule: Q01DX009 (ip), vehicle: water): 118 % of control

Oc1ccc(Nc2c3ccccc3nc3c2ccc2ccccc23)cc1CN(CCCl)CCCl
T/C (dose: 0.08 mg/kg/injection, schedule: Q01DX009 (ip), vehicle: saline): 100 % of control
T/C (dose: 0.12 mg/kg/injection, schedule: Q01DX009 (ip), vehicle: saline): 90 % of control
T/C (dose: 0.51 mg/kg/injection, schedule: Q01DX009 (ip), vehicle: saline): 168 % of control
T/C (dose: 0.52 mg/kg/injection, schedule: Q01DX009 (ip), vehicle: saline): 110 % of control
T/C (dose: 1.02 mg/kg/injection, schedule: Q01DX009 (ip), vehicle: saline): 100 % of control
T/C (dose: 1.1 mg/kg/injection, schedule: Q01DX009 (ip), vehicle: saline): 163 % of control
T/C (dose: 1.17 mg/kg/injection, schedule: Q01DX009 (ip), vehicle: saline): 100 % of control
T/C [1]: 109 % of control
T/C (dose: 1.65 mg/kg/injection, schedule: Q04DX003 (ip), vehicle: saline): 159 % of control
T/C (dose: 2.1 mg/kg/injection, schedule: Q04DX003 (ip), vehicle: saline): 100 % of control
T/C (dose: 2.34 mg/kg/injection, schedule: Q01DX009 (ip), vehicle: saline): 168 % of control

CCOP(=O)(NCCCOC)OCC
T/C (dose: 3.5 mg/kg/injection, schedule: Q01DX009 (ip), vehicle: saline): 105 % of control
T/C (dose: 7.0 mg/kg/injection, schedule: Q01DX009 (ip), vehicle: saline): 120 % of control
T/C (dose: 9.0 mg/kg/injection, schedule: Q04DX003 (ip), vehicle: saline): 122 % of control
T/C (dose: 14.0 mg/kg/injection, schedule: Q01DX009 (ip), vehicle: saline): 115 % of control
T/C (dose: 14.0 mg/kg/injection, schedule: Q04DX003 (ip), vehicle: saline): 104 % of control
T/C (dose: 30.0 mg/kg/injection, schedule: Q01DX009 (ip), vehicle: saline): 88 % of control
T/C (dose: 45.0 mg/kg/injection, schedule: Q01DX009 (ip), vehicle: saline): 88 % of control

COc1cc2c(c(OC)c1OC)-c1ccc(OC)c(=O)cc1[C@@H](N)CC2
T/C (dose: 1.25 mg/kg/injection, schedule: Q01DX009 (ip), vehicle: water): 120 % of control
T/C (dose: 2.0 mg/kg/injection, schedule: Q01DX010 (ip), vehicle: water): 160 % of control
T/C (dose: 5.0 mg/kg/injection, schedule: Q01DX009 (ip), vehicle: water): 94 % of control
T/C (dose: 20.0 mg/kg/injection, schedule: Q04DX003 (ip), vehicle: Klucel (hydroxypropylcellulose) (HPC)): 176 % of control
T/C (dose: 30.0 mg/kg/injection, schedule: Q04DX003 (ip), vehicle: Klucel (hydroxypropylcellulose) (HPC)): 98 % of control
T/C (dose: 45.0 mg/kg/injection, schedule: Q04DX003 (ip), vehicle: Klucel (hydroxypropylcellulose) (HPC)): 89 % of control

CCOC(=O)C(CNc1ccccc1)C(=O)OCC
T/C (dose: 25.0 mg/kg/injection, schedule: Q01DX009 (ip), vehicle: saline with Tween-80): 95 % of control
T/C [2]: 95 % of control
T/C (dose: 100.0 mg/kg/injection, schedule: Q01DX009 (ip), vehicle: saline with Tween-80): 95 % of control and 100 % of control
T/C (dose: 200.0 mg/kg/injection, schedule: Q01DX009 (ip), vehicle: saline with Tween-80): 100 % of control
T/C (dose: 400.0 mg/kg/injection, schedule: Q01DX009 (ip), vehicle: saline with Tween-80): 108 % of control and 109 % of control

CC1(C#N)c2ccccc2C=CN1C(=O)c1ccccc1 (centres undefined)
T/C (dose: 100.0 mg/kg/injection, schedule: Q01DX009 (ip), vehicle: Klucel (hydroxypropylcellulose) (HPC)): 90 % of control
T/C [3]: 100 % of control
T/C (dose: 200.0 mg/kg/injection, schedule: Q01DX009 (ip), vehicle: Klucel (hydroxypropylcellulose) (HPC)): 100 % of control
T/C (dose: 200.0 mg/kg/injection, schedule: Q04DX003 (ip), vehicle: Klucel (hydroxypropylcellulose) (HPC)): 95 % of control
T/C (dose: 400.0 mg/kg/injection, schedule: Q01DX009 (ip), vehicle: Klucel (hydroxypropylcellulose) (HPC)): 100 % of control
T/C (dose: 400.0 mg/kg/injection, schedule: Q04DX003 (ip), vehicle: Klucel (hydroxypropylcellulose) (HPC)): 100 % of control

CC1CC(C)(C)N=C(C[Si](C)(C)CC2=NC(C)(C)CC(C)O2)O1 (centres undefined)
T/C (dose: 25.0 mg/kg/injection, schedule: Q04DX003 (ip), vehicle: Klucel (hydroxypropylcellulose) (HPC)): 114 % of control
T/C (dose: 50.0 mg/kg/injection, schedule: Q04DX003 (ip), vehicle: Klucel (hydroxypropylcellulose) (HPC)): 109 % of control
T/C [3]: 113 % of control

NNC(=O)CCCCCCCCCCCCCCCO
T/C [2]: 94 % of control

CN(C)c1ccc(/C=C2\C=Cc3ccccc32)cc1Br
T/C (dose: 25.0 mg/kg/injection, schedule: Q04DX003 (sc), vehicle: olive oil, sesame oil, peanut oil): 95 % of control
T/C (dose: 50.0 mg/kg/injection, schedule: Q04DX003 (sc), vehicle: olive oil, sesame oil, peanut oil): 100 % of control
T/C (dose: 100.0 mg/kg/injection, schedule: Q04DX003 (sc), vehicle: olive oil, sesame oil, peanut oil): 87 % of control

CN(CCO)/N=N/c1nc[nH]c1C(N)=O
T/C [1]: 95 % of control
T/C (dose: 3.13 mg/kg/injection, schedule: Q01DX009 (ip), vehicle: saline): 100 % of control
T/C (dose: 6.25 mg/kg/injection, schedule: Q01DX009 (ip), vehicle: saline): 100 % of control
T/C (dose: 25.0 mg/kg/injection, schedule: Q01DX009 (ip), vehicle: saline): 92 % of control
T/C (dose: 100.0 mg/kg/injection, schedule: Q04DX003 (ip), vehicle: saline): 105 % of control
T/C (dose: 200.0 mg/kg/injection, schedule: Q01DX009 (ip), vehicle: saline): 110 % of control
T/C (dose: 200.0 mg/kg/injection, schedule: Q04DX003 (ip), vehicle: saline): 100 % of control
T/C (dose: 400.0 mg/kg/injection, schedule: Q01DX009 (ip), vehicle: saline): 100 % of control
T/C (dose: 400.0 mg/kg/injection, schedule: Q04DX003 (ip), vehicle: saline): 105 % of control

COc1cccc2c1C(=O)c1c(O)c3c(c(O)c1C2=O)C[C@@](O)(/C(C)=N\NC(=O)CO)C[C@@H]3OC1CC(N)C(O)C(C)O1 (some centres undefined)
T/C (dose: 0.27 mg/kg/injection, schedule: Q01DX009 (ip), vehicle: saline): 172 % of control
T/C (dose: 0.4 mg/kg/injection, schedule: Q01DX009 (ip), vehicle: saline): 183 % of control
T/C (dose: 0.6 mg/kg/injection, schedule: Q01DX009 (ip), vehicle: saline): 190 % of control
T/C (dose: 0.9 mg/kg/injection, schedule: Q01DX009 (ip), vehicle: saline): 186 % of control
T/C (dose: 1.87 mg/kg/injection, schedule: Q01DX009 (ip), vehicle: saline): 248 % of control
T/C (dose: 2.2 mg/kg/injection, schedule: Q04DX003 (ip), vehicle: saline): 159 % of control and 172 % of control
T/C (dose: 3.3 mg/kg/injection, schedule: Q04DX003 (ip), vehicle: saline): 154 % of control and 213 % of control
T/C (dose: 3.75 mg/kg/injection, schedule: Q01DX009 (ip), vehicle: saline): 182 % of control
T/C (dose: 5.0 mg/kg/injection, schedule: Q04DX003 (ip), vehicle: saline): 163 % of control and 209 % of control
T/C (dose: 7.5 mg/kg/injection, schedule: Q01DX009 (ip), vehicle: saline): 115 % of control
T/C (dose: 7.5 mg/kg/injection, schedule: Q04DX003 (ip), vehicle: saline): 150 % of control and 200 % of control
T/C (dose: 29.0 micrograms/kg/injection, schedule: Q01DX009 (ip), vehicle: saline): 110 % of control
T/C (dose: 44.0 micrograms/kg/injection, schedule: Q01DX009 (ip), vehicle: saline): 116 % of control

CCC1(C(C)Br)OC2=C(CC(C#N)(C#N)C(C#N)(C#N)C2)O1 (centres undefined)
T/C (dose: 12.0 mg/kg/injection, schedule: Q01DX001 (ip), vehicle: Klucel (hydroxypropylcellulose) (HPC)): 116 % of control
T/C (dose: 25.0 mg/kg/injection, schedule: Q01DX001 (ip), vehicle: Klucel (hydroxypropylcellulose) (HPC)): 104 % of control
T/C (dose: 50.0 mg/kg/injection, schedule: Q01DX001 (ip), vehicle: Klucel (hydroxypropylcellulose) (HPC)): 100 % of control
